In patent publication US10485769B2, “Cholesteryl ester transfer protein (CETP) inhibition in the treatment of cancer” (KING ABDULLAH UNIVERSITY OF SCIENCE AND TECHNOLOGY, priority 2015, dated 2019):

Assays:
CETP = CETP activity in mice plasma, CETP activity assay kit; format: in vivo; conditions: 5 mg/kg AP, compared to Vehicle
Experimental: FIG. 7: Levels of CETP mRNA in tumor (A) and protein in serum (B) in mice tumor samples after treatment with 2 mg/kg PL or 5 mg/kg AP were determined with the RT-PCR and western blotting, respectively. Fold change in expression of serum protein was determined using densitometry analysis of western blots using ImageJ (C). CETP activity in serum was estimated using CETP activity kit (name of kit/manufacturer) (D). Values represent the means±SD of three independent experiments. * where p≤0.05, and ** where p≤0.005.
The activity of CETP in mice plasma was determined using the CETP activity assay kit according to the manufacturer's instructions (FIG. 7D). CETP activity was […] in AP treated mice compared to Vehicle. This observation was in accordance with the CETP protein expression levels observed in Vehicle, AP and PL test groups. The expression levels of CETP have been reported to be linear with its activity.

BJ cells = assay: Viability of normal cells, AP combined with chemotherapeutic drugs; format: cell-based, human
Experimental: (§1) FIG. 13: The effect of AP on viability of BJ and MCF-7 cells when combined with different doses of various chemotherapeutic drugs for 24 h. Values represent the means±SD of three replicates.
(§2) We anticipated that AP might have the potential to reduce toxicity and increase efficacy of known chemotherapeutic drugs which may enhance the usage of these drugs at lower concentrations with increased cancer killing effects. To test this preliminary, we treated normal (BJ) and Cancer (MCF-7) cells with different chemotherapeutic drugs as summarized in FIG. 13.
(§3) It is also clear from data that the cancer killing effect achieved using 20 μM tamoxifen was possible to achieve using a combination of AP with 10 μM tamoxifen while enhancing the viability of normal cells at the same time.

MCF-7 cells [1] = assay: Viability of cancer cells, AP combined with chemotherapeutic drugs; format: cell-based, human; conditions: 24 h
Experimental: as §1, §2, §3

MCF-7 cells [2] = conditions: as compared to BJ and triple negative BT20 cells; previously shown [1]; cited from earlier work

SMILES: CC(=O)Oc1cccc2c1C(=O)C=C(C)C2=O [AP, Acetyl Plumbagin]
- CETP activity in plasma (CETP): elevated
- increase of cell viability of normal cells (BJ cells; AP in combination with 5-Florouracil, 24 h): 7%
- increase of viability of normal cells (BJ cells; AP with 10 μM of tamoxifen, 24 h): 7%
- rescue of normal cells from toxic effects of tamoxifen (BJ cells; AP with tamoxifen at higher concentrations): unable to rescue
- reduction of viability of cancer cells (MCF-7 cells [1]; AP in combination with 5-Florouracil): 76%
- reduction of viability of cancer cells (MCF-7 cells [1]; AP with 10 μM of tamoxifen): 50%
- selectivity against MCF-7 (MCF-7 cells [2]): selective activity
